Read-outs that look alike come from different tables or passages of the source.
Legend:
[1] = test system: rat; settings: cited from earlier work
[2] = at 100° C.; cited from earlier work
[3] = In vitro elution of Resiquimod from coagulated gel (HPLC); format: physicochemical
Procedure: Methods 3 Absorbance values of three known concentrations of Resiquimod samples (4.3×10−6, 4.3×10−5 and 8.6×10−5 M) were obtained to established a linear relationship (FIG. 23A) using the HPLC system as described in Methods 2 except wavelength=328 nm and the retention time=3.31 min.

[4] = In vitro elution of Doxorubicin from coagulated gel (HPLC); format: physicochemical; settings: for part of drug eluted out over time: citrate buffer pH 7, 36.5° C.
Procedure: Methods 2 Absorbance values of three known concentrations of Doxorubicin samples (1.0×10^−6, 9.5×10^−6 and 1.9×10^−5 M) were obtained to established a linear relationship (FIG. 4, Left) using a HPLC system: Agilant 1100; mobile phase=a gradient of ACN and H2O with 1% ammonium acetate; wavelength=500 nm; flow rate=1 mL/min. Each data point was an average of three measurements. Under the HPLC conditions, the retention time of Doxorubicin was at 4.00 minutes. Separately, three different amounts of Doxorubicin (2.1, 1.1 and 0.6 mg) were mixed with HSA-based #1 gel (0.5 mL each) and ablated using the conditions described in Aim 1. Once complete, the coagulated gel impregnated with Doxorubicin was collected and placed in a citrate buffer (5 mL, pH 7) in a water bath at 36.5° C. At 1, 3, 24 and 72 h, a small quantity of solution (0.5 mL) was passed through a membrane filter (cutoff 7 KDa) and injected into the HPLC system to quantify the eluted Doxorubicin. Each data point was triplicated.

[5] = Doxorubicin diffusion from coagulated gel in agarose phantom; format: physicochemical; settings: 2.0 mg in 0.5 mL gel
Procedure: Method 1: In a 1% (w/v) agarose gel as phantom, HSA-based #1 gel (0.5 mL) with Doxorubicin HCl (2.0 mg) was placed 1 cm away from a MW antenna at ambient temperature. The ablation was performed at 60 W for 10 minutes (MicroThermX/Varian 915 MHz). Post ablation, the cooled agarose gel was left at ambient temperature for 48 hours for diffusion of the Doxorubicin.
The solution contained 1 (w/v) % agarose phantom. The ablation conditions: 915 MHz, 60 W for 10 minutes.

[6] = Dielectric properties by open-ended coaxial measurement; format: physicochemical
Description: Materials or formulations with a high dipole moment as potential thermal accelerants can be expressed by the ε″ and σ values for thermal ablation (radiofrequency, microwave, irreversible electroporation. A person skilled in the art will recognize that in order to show the capacity of a material, or formulations of a material, quantitatively as a thermal accelerant, the concept of permittivity can be employed in lieu of, or in addition to, evaluation of dipole moment. For example, materials can be tested using an electromagnetic wave of sinusoidal frequency ω, which is directed at a subject sample by an open-ended coaxial cable of a low-power oscillator. Measurement of the magnitude and phase of the fraction of the wave which is reflected allows deduction of the complex permittivity of the tissue.
The complex permittivity is defined as ε*=ε′−jε″, where ε′ is the real permittivity and ε″ is the imaginary permittivity. […] The real permittivity is also known as the dielectric constant. The imaginary permittivity is also called the loss factor and can be written ε″=σ/(ωε0), so as to incorporate the electrical conductivity of the material, […]. The quantity a directly scales the power deposited per unit volume according to the following expression, ARD=σ|E|^2, where ARD is Absorption Rate Density (watt m^−3), […] is electrical conductivity (ohm^−1 m^−1), and JEJ is the magnitude of the electrical field (volt m^−1) produced by the microwave antenna at the point of interest in the tissue.

[7] = reference values; cited from earlier work

## [Cl-].[Cs+] [CsCl, cesium chloride]
[1]; iv
  LD50: 910 mg/kg
[1]; oral
  LD50: 2,600 mg/kg
[2]
  solubility in water: 2.7 kg/L

## COc1cccc2c1C(=O)c1c(O)c3c(c(O)c1C2=O)C[C@@](O)(C(=O)CO)C[C@@H]3O[C@H]1C[C@H](N)[C@H](O)[C@H](C)O1 [Doxorubicin]
[3]; 0.063 mg
  part of drug eluted out over time: 87%
[3]; 0.63 mg
  part of drug eluted out over time: 64%
[3]; 1.25 mg
  part of drug eluted out over time: 57%
[4]; 0.6 mg in 0.5 mL gel
  part of drug eluted out over time: 87%
[4]; 1.1 mg in 0.5 mL gel
  part of drug eluted out over time: 64%
[4]; 2.1 mg in 0.5 mL gel
  part of drug eluted out over time: 57%
[4]; 1, 3, 24, 72 h
  elution rate over time: highest at 1 h
[5]; 6 h after ablation
  diffusion to the surrounding area of the phantom: apparent
[5]; immediately after ablation
  diffusion out of coagulated gel: no diffusion out of the protein meshwork

## CO [MeOH, methanol]
[6]; 915 MHz
  Dielectric constant (ε′): 31.2
  electrical conductivity (σ): 0.1 mho/m
[6]; 2450 MHz
  Dielectric constant (ε′): 22.2
  electrical conductivity (σ): 0.1

## O [Water (deionized)]
[7]
  Electrical Conductivity (σ) of reference media: 5 × 10^−6 S/m

## O [Water]
[6]; 915 MHz
  Dielectric constant (ε′): 78.3
  electrical conductivity (σ): 0 mho/m
[6]; 2450 MHz
  Dielectric constant (ε′): 76.9
  electrical conductivity (σ): 0.1

From patent US12702478B2, “Devices, methods, and compositions for thermal acceleration and drug delivery” (Rhode Island Hospital, priority 2015, dated 2026)
